Results from US20210369675A1, “ANTIMICROBIAL DRUG METHODS OF USE & THERAPEUTIC COMPOSITIONS” (priority 2017, published 2021).
Entries after “also recorded” stand apart in the source; their conditions may differ.

Assays:
[1] = current 300 mg capsule formulation, per product label; cited from earlier work
[2] = test system: Burkholderia pseudomallei; conditions: cited from earlier work
Brucella melitensis = conditions: cited from earlier work
[3] = test system: Burkholderia pseudomallei; assay type: cell-based
[4] = cited from earlier work; for elimination half-life (T1/2): after a single administration of rac-ornidazole in a formulation; for AUC0-∞: after a single administration

## C[C@H](CCC(=O)O)[C@H]1CC[C@H]2[C@@H]3[C@@H](O)C[C@@H]4C[C@H](O)CC[C@]4(C)[C@H]3CC[C@]12C [Ursodiol, ursodeoxycholic acid]
[1]
  fraction of drug absorbed in the small intestines (small bowel): 90%
  fraction of drug reaching the colon: less than 10%

## O=C(N[C@H](CO)[C@H](O)c1ccc([N+](=O)[O-])cc1)C(Cl)Cl [chloramphenicol]
[2]
  effectiveness of conventional antibiotics against B. pseudomallei: not effective
Brucella melitensis
  effectiveness of conventional antibiotics against B. melitensis: not effective

## CC(C)(O/N=C(\C(=O)N[C@@H]1C(=O)N2C(C(=O)[O-])=C(C[n+]3ccccc3)CS[C@H]12)c1csc(N)n1)C(=O)O [ceftazidime]
[2]
  effectiveness of conventional antibiotics against B. pseudomallei: not effective
Brucella melitensis
  effectiveness of conventional antibiotics against B. melitensis: not effective

## Cc1ncc([N+](=O)[O-])n1CC(O)CCl (racemic) [(rac)-ornidazole, 1-chloro-3-(2-methyl-5-nitro-1H-imidazol-1-yl)propan-2-ol]
[3]
  inhibition of B. pseudomallei grown under anaerobic conditions: inhibition; also recorded: effectively inhibited

## trimethoprim-sulfamethoxazole
[2]
  effectiveness of conventional antibiotics against B. pseudomallei: not effective
Brucella melitensis
  effectiveness of conventional antibiotics against B. melitensis: not effective

## Cc1ncc([N+](=O)[O-])n1C[C@H](O)CCl [(S)-ornidazole]
[4]
  elimination half-life (T1/2): similar
  AUC0-∞: similar

## Cc1ncc([N+](=O)[O-])n1C[C@@H](O)CCl [(R)-ornidazole]
[4]
  elimination half-life (T1/2): similar
  AUC0-∞: similar
